Measurements taken from PMC4385830, “Group I Paks as therapeutic targets in NF2-deficient meningioma” (Oncotarget, 2015).

Assays:
[1] = system: KT21 cells; assay: Apoptosis, Annexin V positive cells by flow cytometry; assay type: cell-based; conditions: 3 days, vs DMSO
Procedure: For detection of apoptosis, subconfluent cells were plated in 60-mm plate and treated with inhibitors for 3 days. Cells were collected, washed and resuspended in 1x binding buffer with Annexin V-EGFP and propidium iodide (BioVision, CA) and incubated at room temperature for 5 min in dark. Apoptosis was measured using FACS with collecting 10,000 events per sample.

[2] = target: T1, FGFR3 (Homo sapiens, UniProt P22607); assay: Kinase selectivity, Z'-LYTE; assay type: biochemical
T1 construct: purchased Invitrogen (Life Technologies) SelectScreen Z'-LYTE
Procedure: (§1) Kinase selectivity was assessed using a commercial service that employs a fluorescence-based, coupled-enzyme assay based on the differential sensitivity of phosphorylated and non-phosphorylated peptides to proteolytic cleavage (Invitrogen, Z'-LYTE®). This assay uses recombinant protein kinases and assay mixed optimized for each particular kinase (http://www.lifetechnologies.com/us/en/home/life-science/drug-discovery/target-and-lead-identification-and-validation /kinasebiology/kinase-activity-assays/z-lyte.html).

[3] = target: T2, JAK3 (Homo sapiens, UniProt P52333); assay: Kinase selectivity, Z'-LYTE; assay type: biochemical
T2 construct: purchased Invitrogen (Life Technologies) SelectScreen Z'-LYTE
T2 sequence (P52333 1-1124): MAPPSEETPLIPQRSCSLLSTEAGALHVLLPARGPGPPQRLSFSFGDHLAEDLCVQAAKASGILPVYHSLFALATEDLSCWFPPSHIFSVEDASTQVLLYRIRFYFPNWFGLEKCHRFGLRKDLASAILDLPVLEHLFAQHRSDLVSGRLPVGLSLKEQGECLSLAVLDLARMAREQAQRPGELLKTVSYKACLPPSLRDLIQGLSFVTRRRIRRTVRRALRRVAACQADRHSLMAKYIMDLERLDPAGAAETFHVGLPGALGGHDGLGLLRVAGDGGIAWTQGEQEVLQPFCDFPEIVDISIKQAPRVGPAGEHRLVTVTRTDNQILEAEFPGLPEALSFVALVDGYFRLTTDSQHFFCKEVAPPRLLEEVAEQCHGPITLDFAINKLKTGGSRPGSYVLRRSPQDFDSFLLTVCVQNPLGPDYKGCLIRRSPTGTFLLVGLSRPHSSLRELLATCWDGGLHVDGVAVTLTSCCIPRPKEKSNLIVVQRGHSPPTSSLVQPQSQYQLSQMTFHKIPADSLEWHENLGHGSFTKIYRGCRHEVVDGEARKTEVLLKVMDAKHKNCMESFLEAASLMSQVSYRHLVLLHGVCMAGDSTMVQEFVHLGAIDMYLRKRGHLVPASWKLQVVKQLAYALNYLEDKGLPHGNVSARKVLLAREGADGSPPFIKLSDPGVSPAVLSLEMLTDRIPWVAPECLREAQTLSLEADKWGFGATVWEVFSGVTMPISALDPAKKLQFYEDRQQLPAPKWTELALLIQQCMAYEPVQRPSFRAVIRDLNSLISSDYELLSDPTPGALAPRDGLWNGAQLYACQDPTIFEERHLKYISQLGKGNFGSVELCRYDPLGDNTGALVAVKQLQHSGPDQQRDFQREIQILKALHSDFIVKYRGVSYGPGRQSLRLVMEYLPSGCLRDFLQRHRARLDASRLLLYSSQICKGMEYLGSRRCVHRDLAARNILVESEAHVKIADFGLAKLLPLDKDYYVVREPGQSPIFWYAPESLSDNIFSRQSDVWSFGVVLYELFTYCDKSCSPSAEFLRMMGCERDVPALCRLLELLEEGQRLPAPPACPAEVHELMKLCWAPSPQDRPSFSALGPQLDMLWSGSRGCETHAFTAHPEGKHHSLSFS
Procedure: as §1

[4] = target: T3, PRKCE (PKC epsilon) (Homo sapiens, UniProt Q02156); assay: Kinase selectivity, Z'-LYTE; assay type: biochemical
T3 construct: purchased Invitrogen (Life Technologies) SelectScreen Z'-LYTE
T3 sequence (Q02156 1-737): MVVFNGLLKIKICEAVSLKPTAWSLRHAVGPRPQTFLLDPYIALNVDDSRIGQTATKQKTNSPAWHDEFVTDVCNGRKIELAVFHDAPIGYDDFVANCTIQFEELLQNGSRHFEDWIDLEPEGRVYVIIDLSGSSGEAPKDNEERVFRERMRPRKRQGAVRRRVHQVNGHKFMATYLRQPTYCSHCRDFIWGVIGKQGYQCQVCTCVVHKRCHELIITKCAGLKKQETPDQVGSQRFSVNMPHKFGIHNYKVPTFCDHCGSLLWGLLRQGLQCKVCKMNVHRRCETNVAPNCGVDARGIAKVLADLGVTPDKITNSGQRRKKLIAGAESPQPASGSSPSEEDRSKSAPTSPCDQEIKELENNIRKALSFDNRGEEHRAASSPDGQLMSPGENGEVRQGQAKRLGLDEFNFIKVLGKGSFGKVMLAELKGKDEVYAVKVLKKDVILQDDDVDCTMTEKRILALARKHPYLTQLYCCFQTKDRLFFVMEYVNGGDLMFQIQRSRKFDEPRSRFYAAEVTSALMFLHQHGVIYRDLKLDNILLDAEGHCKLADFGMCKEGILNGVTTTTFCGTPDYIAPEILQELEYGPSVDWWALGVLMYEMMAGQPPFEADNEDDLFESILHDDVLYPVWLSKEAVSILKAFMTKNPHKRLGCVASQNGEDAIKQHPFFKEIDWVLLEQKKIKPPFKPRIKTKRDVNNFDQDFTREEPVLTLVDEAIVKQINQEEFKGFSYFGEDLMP
Procedure: as §1

[5] = target: T4, SYK (Homo sapiens, UniProt P43405); assay: Kinase selectivity, Z'-LYTE; assay type: biochemical
T4 construct: purchased Invitrogen (Life Technologies) SelectScreen Z'-LYTE
Procedure: as §1

T1 sequence (P22607 23-806): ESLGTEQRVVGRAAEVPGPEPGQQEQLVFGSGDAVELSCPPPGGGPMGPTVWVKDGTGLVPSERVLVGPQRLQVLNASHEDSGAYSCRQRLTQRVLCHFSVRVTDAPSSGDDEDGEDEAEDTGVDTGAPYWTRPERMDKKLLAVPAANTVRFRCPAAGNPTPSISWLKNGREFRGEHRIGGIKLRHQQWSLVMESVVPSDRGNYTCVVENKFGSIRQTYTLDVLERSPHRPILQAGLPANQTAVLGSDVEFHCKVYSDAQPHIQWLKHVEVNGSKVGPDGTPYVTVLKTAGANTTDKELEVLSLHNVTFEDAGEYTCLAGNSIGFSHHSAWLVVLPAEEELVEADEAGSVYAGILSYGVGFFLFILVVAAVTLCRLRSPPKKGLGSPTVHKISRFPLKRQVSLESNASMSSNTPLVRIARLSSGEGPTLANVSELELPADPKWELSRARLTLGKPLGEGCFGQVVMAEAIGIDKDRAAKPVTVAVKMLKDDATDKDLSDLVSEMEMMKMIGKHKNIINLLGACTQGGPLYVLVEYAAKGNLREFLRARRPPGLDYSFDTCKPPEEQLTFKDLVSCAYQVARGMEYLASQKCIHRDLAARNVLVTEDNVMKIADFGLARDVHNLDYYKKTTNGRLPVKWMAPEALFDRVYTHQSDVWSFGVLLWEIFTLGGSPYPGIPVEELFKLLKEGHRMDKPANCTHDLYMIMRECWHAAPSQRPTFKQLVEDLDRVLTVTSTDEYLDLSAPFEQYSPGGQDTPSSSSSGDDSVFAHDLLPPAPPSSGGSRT

Structure (SMILES)	number of apoptotic cells [1]	% inhibition of activity [2] [%]	% inhibition of activity [3] [%]	% inhibition of activity [4] [%]	% inhibition of activity [5] [%]
CCn1c(=O)c(-c2ccc(-c3noc(C)n3)cc2Cl)cc2cnc(Nc3ccc(C4CCN(C)CC4)cc3)nc21 [Frax716]	substantial increase	35	3	14	21
CCn1c(=O)c(-c2ccc(-c3cncc(C)n3)cc2Cl)cc2cnc(NCCC3CCN(C)CC3)nc21 [Frax1036]	substantial increase	0	0	25	4
Cc1nc(Nc2[nH]nc3c2CN(C(=O)N[C@H](CN(C)C)c2ccccc2)C3(C)C)c2sccc2n1 [PF3758309, reference compound]	substantial increase	31	10	62	32
